# According to patent publication US20260070917A1, “CYCLIN DEPENDENT KINASE DEGRADERS AND METHODS OF USE THEREOF” (Differentiated Therapeutics Inc, priority 2023, published 2026):
# Where two headings read alike, the source gives them in different places.
# Assays:
# Format in all cases: cell-based
# CDK2 = molecular target: T1, CDK2 (Homo sapiens, UniProt P24941); assay: HiBit Assay Protocol for CDK2 (HIBIT protein quantification, degradation); conditions: HEK293-CDK2-Hibit cells, compound treatment for 6 hours; for DC50: ABS DC50
# T1 construct: host or cells: HEK293-CDK2-Hibit
# In short: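 HEK293 cells expressing HiBiT-tagged CDK2 were seeded overnight, then treated 6 h with a 3-fold, 10-point compound dilution series. CDK2 levels were read as luminescence after lytic HiBiT/LgBiT detection, normalised to DMSO-only and medium-only controls, and DC50 derived by curve fitting.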
# CCNE1 [1] = molecular target: T2, CCNE1 (Homo sapiens, UniProt P24864); assay: HiBit Assay Protocol for CCNE1 (HIBIT protein quantification, degradation); conditions: HEK293-CCNE1-Hibit cells, compound treatment for 6 hours
# T2 construct: host or cells: HEK293-CCNE1-Hibit
# T2 sequence (P24864 whole entry): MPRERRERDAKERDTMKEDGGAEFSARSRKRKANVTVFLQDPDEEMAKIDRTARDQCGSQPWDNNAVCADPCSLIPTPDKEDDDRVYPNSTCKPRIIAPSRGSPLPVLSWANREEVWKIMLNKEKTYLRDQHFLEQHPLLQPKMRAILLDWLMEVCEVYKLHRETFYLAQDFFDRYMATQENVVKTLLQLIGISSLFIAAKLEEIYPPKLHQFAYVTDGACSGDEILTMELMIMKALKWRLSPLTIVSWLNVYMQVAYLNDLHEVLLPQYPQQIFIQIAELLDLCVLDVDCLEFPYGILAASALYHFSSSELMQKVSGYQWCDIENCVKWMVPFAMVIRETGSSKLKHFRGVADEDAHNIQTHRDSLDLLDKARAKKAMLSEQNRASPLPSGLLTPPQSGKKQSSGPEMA
# In short: (§1)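 HEK293 cells expressing HiBiT-tagged CCNE1 were seeded overnight, then treated 6 h with a 3-fold, 10-point compound dilution series. HiBiT levels were read by lytic LgBiT luminescence and normalised to DMSO-only (high) and medium-only (low) controls. DC50 was derived by curve fitting.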
# CCNE1 [2] = molecular target: T3, CCNE1 (Homo sapiens, UniProt P24864+P24941); assay: as above; conditions: HEK293-CCNE1-Hibit cells, compound treatment for 6 hours, ABS DC50
# T3 construct: host or cells: HEK293-CCNE1-Hibit
# T3 sequence (P24864 whole entry, one chain of several): as the sequence (P24864 whole entry) above
# In short: as §1
# CDK9 = molecular target: T4, CDK9 (Homo sapiens, UniProt P50750); assay: HiBit Assay Protocol for CDK9 (HIBIT protein quantification, degradation); conditions: HEK293-CDK9-Hibit cells, compound treatment for 6 hours; for Dmax: read-out: CDK9 HIBIT Protein Quantification Maximum; for DC50: ABS DC50
# T4 construct: host or cells: HEK293-CDK9-Hibit
# T4 sequence (P50750 whole entry): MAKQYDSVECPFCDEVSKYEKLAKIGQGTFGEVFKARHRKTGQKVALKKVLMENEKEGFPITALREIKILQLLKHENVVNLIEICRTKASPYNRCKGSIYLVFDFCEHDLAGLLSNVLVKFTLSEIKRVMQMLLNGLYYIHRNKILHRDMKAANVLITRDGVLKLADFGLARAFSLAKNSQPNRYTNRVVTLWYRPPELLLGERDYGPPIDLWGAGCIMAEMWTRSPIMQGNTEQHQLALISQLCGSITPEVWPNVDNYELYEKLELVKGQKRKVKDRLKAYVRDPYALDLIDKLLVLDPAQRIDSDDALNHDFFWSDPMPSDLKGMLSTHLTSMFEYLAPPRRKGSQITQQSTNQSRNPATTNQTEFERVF
# In short: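 HEK293 cells carrying HiBiT-tagged CDK9 treated 6 h with compounds in a 3-fold, 10-point dilution series. CDK9 level read by lytic Nano-Glo HiBiT/LgBiT luminescence and normalized to 0.1% DMSO (high) and medium-only (low) controls. DC50 from curve fitting.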
Dmax (CDK9; 6 h),SMILES,CDK2 HIBIT Protein Quantification Maximum (CDK2),DC50 (CDK2),CCNE1 HIBIT Protein Quantification Maximum (CCNE1 [1]),DC50 (CCNE1 [2]),DC50 (CDK9),Dmax (CDK9)
56%,"CN(CCCN1CCC(c2cccc3c2n(C)c(=O)n3C2CCC(=O)NC2=O)CC1)S(=O)(=O)N1CCC(Nc2ncc3c(n2)N([C@@H]2CCC[C@@H](O)C2)C(=O)C32CC2)CC1 (stereo partly drawn) [Compound 131, N-(3-{4-[1-(2,6-Dioxopiperidin-3-yl)-3-methyl-2-oxo-1,3-benzodiazol-4-yl]piperidin-1-yl}propyl)-4-{7′-[(1R,3R)-3-hydroxycyclohexyl]-6′-oxospiro[cyclopropane-1,5′-pyrrolo[2,3-d]pyrimidin]-2′-ylamino}-N-methylpiperidine-1-sulfonamide]",83%,21.9 nM,63%,19.9 nM,69.2 nM,–
–,"O=C1CCC(N2Cc3cc(N4CCN(CC5CCN(c6cccc(S(=O)(=O)c7ccc(Nc8ncc9c(n8)N([C@@H]8CCC[C@@H](O)C8)C(=O)C98CC8)cc7)c6)CC5)CC4)ccc3C2=O)C(=O)N1 (stereo partly drawn) [Compound 126, 3-{5-[4-({1-[3-(4-{7′-[(1R,3R)-3-hydroxycyclohexyl]-6′-oxospiro [cyclopropane-1,5′-pyrrolo[2,3-d]pyrimidin]-2′-ylamino}benzenesulfonyl)phenyl]piperidin-4-yl}methyl)piperazin-1-yl]-1-oxo-3H-isoindol-2-yl}piperidine-2,6-dione]",66%,6 nM,71%,29.6 nM,33.4 nM,84%
